Measured values as given in paper PMC3204975, “A Photolyase-Like Protein from Agrobacterium tumefaciens with an Iron-Sulfur Cluster” (PLoS ONE, 2011).

Assays:
PhrB = target: T1, PhrB (Agrobacterium fabrum, UniProt A9CH39); test: UV-vis absorption and blue-light photoreduction of co-purified cofactor; assay type: binding; settings: co-purified from E. coli; 24 h dark, then 470 nm and 405 nm light with 20 mM DTT, pH 7.8, 4°C
T1 construct: full gene (1524 bp, 507 residues), C-terminal 6xHis-tag (pET-21b), expressed in E. coli ER2566, tag not reported cut
T1 sequence (A9CH39 whole entry): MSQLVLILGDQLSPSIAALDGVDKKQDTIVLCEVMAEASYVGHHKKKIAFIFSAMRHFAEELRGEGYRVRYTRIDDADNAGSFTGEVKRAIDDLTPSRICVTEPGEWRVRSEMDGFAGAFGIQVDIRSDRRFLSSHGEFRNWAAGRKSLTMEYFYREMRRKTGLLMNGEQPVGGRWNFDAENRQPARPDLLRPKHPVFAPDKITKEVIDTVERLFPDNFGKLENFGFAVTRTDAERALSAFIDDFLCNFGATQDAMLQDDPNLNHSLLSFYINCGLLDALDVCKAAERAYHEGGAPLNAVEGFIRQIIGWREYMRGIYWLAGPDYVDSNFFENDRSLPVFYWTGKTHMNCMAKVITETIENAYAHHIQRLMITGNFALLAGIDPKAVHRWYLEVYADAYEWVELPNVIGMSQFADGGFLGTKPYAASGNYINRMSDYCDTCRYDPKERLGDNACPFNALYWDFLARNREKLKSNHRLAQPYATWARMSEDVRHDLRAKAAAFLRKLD

PhrA = target: T2, PhrA (Agrobacterium fabrum, UniProt A9CJC9); test: as above; assay type: binding; settings: co-purified from E. coli; 24 h dark, then 470 nm light with 10 mM DTT, pH 7.8, 4°C
T2 construct: full gene, N-terminal His6-tag (pQE30UA), expressed in E. coli XL1 blue, tag not reported cut
T2 sequence (A9CJC9 1-479): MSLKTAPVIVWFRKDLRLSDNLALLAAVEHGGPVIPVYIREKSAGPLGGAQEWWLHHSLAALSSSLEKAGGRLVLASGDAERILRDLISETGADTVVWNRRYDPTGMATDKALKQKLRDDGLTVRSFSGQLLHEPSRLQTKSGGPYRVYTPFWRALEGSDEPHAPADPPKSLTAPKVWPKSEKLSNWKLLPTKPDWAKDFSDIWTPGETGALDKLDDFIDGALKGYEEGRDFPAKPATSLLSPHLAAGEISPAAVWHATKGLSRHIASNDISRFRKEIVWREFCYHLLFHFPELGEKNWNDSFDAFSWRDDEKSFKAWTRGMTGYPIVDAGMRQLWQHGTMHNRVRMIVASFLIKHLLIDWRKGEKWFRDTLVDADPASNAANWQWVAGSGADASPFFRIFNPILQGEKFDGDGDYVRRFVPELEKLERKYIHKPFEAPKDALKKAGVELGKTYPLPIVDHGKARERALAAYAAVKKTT

Cc1cc2nc3c(=O)[nH]c(=O)nc-3n(C[C@H](O)[C@H](O)[C@H](O)COP(=O)(O)OP(=O)(O)OC[C@H]3O[C@@H](n4cnc5c(N)ncnc54)[C@H](O)[C@@H]3O)c2cc1C [FAD]
UV-vis absorption and blue-light photoreduction of co-purified cofactor (PhrB): the FAD cofactor in PhrB is photoreduced to the fully reduced FAD state | UV-vis absorption and blue-light photoreduction of co-purified cofactor (PhrA): a nearly stoichiometric ratio of both cofactors to the PhrA apoprotein was determined
